# Organism: Rattus norvegicus
# Experiment: Open TG-GATES - Regimen: Daily Repeat
# Type: toxicity, organism-based, Sprague-Dawley
# Design: regimen Daily Repeat, gender Male, age 6 weeks
# Conditions: in vivo, po, route gavage; for APTT / Bas / Eos / Fbg / Ht / Lym / MCHC / MCV / Mono / RBC / Ret / WBC / Hb / Neu: tissue Blood; for KIDNEY_L / KIDNEY_R / KIDNEY_TOTAL: tissue Kidney; for ALP / ALT / AST / BUN / CRE / Ca / Cl / DBIL / GLC / IP / K / PL / RALB / TBIL / TC / TG / TP / gamma-GTP: tissue Plasma
# [1] = 0 mg/kg, 72 h, dose level Control, time 3 day
# [2] = 0 mg/kg, […], dose level Control, time 7 day
# [3] = 0 mg/kg, […], dose level Control, time 14 day
# [4] = 0 mg/kg, […], dose level Control, time 28 day
# [5] = 20 mg/kg, 72 h, dose level Low, time 3 day
# [6] = 20 mg/kg, […], dose level Low, time 7 day
# [7] = 20 mg/kg, […], dose level Low, time 14 day
# [8] = 20 mg/kg, […], dose level Low, time 28 day
# [9] = 60 mg/kg, 72 h, dose level Middle, time 3 day
smiles,measurement,setting,value
CCCCC1C(=O)N(c2ccccc2)N(c2ccccc2)C1=O [PHENYLBUTAZONE],TERMINAL_BW,[1],239.7 g
same,APTT,[1],16.9 s
same,Bas,[1],0%
same,Eos,[1],1%
same,Fbg,[1],233.4 mg/dL
same,Ht,[1],42.7%
same,Lym,[1],81.6%
same,MCHC,[1],33.3%
same,MCV,[1],63.6 fL
same,Mono,[1],5.6%
same,RBC,[1],672.8 x10_4/ul
same,Ret,[1],7.3%
same,WBC,[1],131.2 x10_2/uL
same,KIDNEY_L,[1],1.1 g
same,KIDNEY_R,[1],1.1 g
same,KIDNEY_TOTAL,[1],2.2 g
same,ALP,[1],868 IU/L
same,ALT,[1],35.2 IU/L
same,AST,[1],61 IU/L
same,BUN,[1],17.4 mg/dL
same,CRE,[1],0.6 mg/dL
same,Ca,[1],10.6 mg/dL
same,Cl,[1],105 meq/L
same,DBIL,[1],0 mg/dL
same,GLC,[1],195.2 mg/dL
same,IP,[1],9 mg/dL
same,K,[1],5.1 meq/L
same,PL,[1],170.6 mg/dL
same,RALB,[1],4 g/dL
same,TBIL,[1],0.3 mg/dL
same,TC,[1],86.6 mg/dL
same,TG,[1],136.4 mg/dL
same,TP,[1],6.1 g/dL
same,gamma-GTP,[1],1.6 IU/L
same,TERMINAL_BW,[2],268.9 g
same,TERMINAL_BW,[3],318.1 g
same,TERMINAL_BW,[4],373 g
same,APTT,[2],15.7 s
same,Bas,[2],0%
same,Eos,[2],0.8%
same,Fbg,[2],242.2 mg/dL
same,Hb,[2],13.9 g/dL
same,Ht,[2],42.1%
same,Lym,[2],84.2%
same,MCHC,[2],33.1%
same,MCV,[2],62.4 fL
same,Mono,[2],6.6%
same,Neu,[2],8.8%
same,RBC,[2],674.8 x10_4/ul
same,Ret,[2],5.4%
same,WBC,[2],155.4 x10_2/uL
same,APTT,[3],16.4 s
same,Bas,[3],0%
same,Eos,[3],0.6%
same,Fbg,[3],227.8 mg/dL
same,Hb,[3],15 g/dL
same,Ht,[3],44.8%
same,Lym,[3],84.8%
same,MCHC,[3],33.6%
same,MCV,[3],62.7 fL
same,Mono,[3],4.2%
same,Neu,[3],10.2%
same,RBC,[3],714.8 x10_4/ul
same,Ret,[3],4.4%
same,WBC,[3],131.9 x10_2/uL
same,APTT,[4],16 s
same,Bas,[4],0%
same,Eos,[4],1%
same,Fbg,[4],233 mg/dL
same,Hb,[4],15.7 g/dL
same,Ht,[4],46.9%
same,Lym,[4],82.8%
same,MCHC,[4],33.4%
same,MCV,[4],56.2 fL
same,Mono,[4],4.2%
same,RBC,[4],835.8 x10_4/ul
same,Ret,[4],2.1%
same,WBC,[4],151.8 x10_2/uL
same,KIDNEY_L,[2],1.2 g
same,KIDNEY_R,[2],1.1 g
same,KIDNEY_TOTAL,[2],2.3 g
same,KIDNEY_L,[3],1.2 g
same,KIDNEY_R,[3],1.2 g
same,KIDNEY_TOTAL,[3],2.3 g
same,KIDNEY_L,[4],1.4 g
same,KIDNEY_R,[4],1.4 g
same,KIDNEY_TOTAL,[4],2.7 g
same,ALP,[2],919.6 IU/L
same,ALT,[2],35.6 IU/L
same,AST,[2],69 IU/L
same,BUN,[2],18.8 mg/dL
same,CRE,[2],0.5 mg/dL
same,Ca,[2],10.6 mg/dL
same,Cl,[2],105.4 meq/L
same,DBIL,[2],0.006 mg/dL
same,GLC,[2],210.8 mg/dL
same,IP,[2],8.9 mg/dL
same,K,[2],4.9 meq/L
same,RALB,[2],3.9 g/dL
same,TBIL,[2],0.3 mg/dL
same,TC,[2],74.4 mg/dL
same,TG,[2],112.6 mg/dL
same,TP,[2],6.6 g/dL
same,gamma-GTP,[2],1.8 IU/L
same,ALP,[3],748 IU/L
same,ALT,[3],31.4 IU/L
same,AST,[3],57.8 IU/L
same,BUN,[3],19.6 mg/dL
same,CRE,[3],0.6 mg/dL
same,Ca,[3],10.5 mg/dL
same,Cl,[3],108 meq/L
same,DBIL,[3],0.016 mg/dL
same,GLC,[3],207.4 mg/dL
same,IP,[3],7.9 mg/dL
same,K,[3],4.7 meq/L
same,PL,[3],160.4 mg/dL
same,RALB,[3],4 g/dL
same,TBIL,[3],0.3 mg/dL
same,TC,[3],79.2 mg/dL
same,TG,[3],177.6 mg/dL
same,TP,[3],6.2 g/dL
same,gamma-GTP,[3],1.2 IU/L
same,ALP,[4],692.8 IU/L
same,ALT,[4],33 IU/L
same,AST,[4],62 IU/L
same,BUN,[4],20.2 mg/dL
same,CRE,[4],0.6 mg/dL
same,Ca,[4],10.1 mg/dL
same,Cl,[4],107.6 meq/L
same,DBIL,[4],0.008 mg/dL
same,GLC,[4],200 mg/dL
same,IP,[4],6.8 mg/dL
same,K,[4],4.5 meq/L
same,RALB,[4],3.9 g/dL
same,TBIL,[4],0.3 mg/dL
same,TC,[4],61 mg/dL
same,TG,[4],170.2 mg/dL
same,TP,[4],6.4 g/dL
same,gamma-GTP,[4],2 IU/L
same,TERMINAL_BW,[5],234.1 g
same,APTT,[5],16.6 s
same,Bas,[5],0%
same,Eos,[5],1%
same,Fbg,[5],220 mg/dL
same,Ht,[5],42.6%
same,Lym,[5],76.6%
same,MCHC,[5],33.4%
same,MCV,[5],66.3 fL
same,Mono,[5],8.4%
same,Neu,[5],14%
same,RBC,[5],643.4 x10_4/ul
same,Ret,[5],7.4%
same,WBC,[5],137.6 x10_2/uL
same,KIDNEY_L,[5],1 g
same,KIDNEY_R,[5],1 g
same,KIDNEY_TOTAL,[5],2 g
same,ALP,[5],895.4 IU/L
same,ALT,[5],37.2 IU/L
same,AST,[5],63.2 IU/L
same,BUN,[5],16 mg/dL
same,CRE,[5],0.6 mg/dL
same,Ca,[5],10.4 mg/dL
same,Cl,[5],106.4 meq/L
same,DBIL,[5],0 mg/dL
same,GLC,[5],195.6 mg/dL
same,IP,[5],8.1 mg/dL
same,K,[5],4.9 meq/L
same,PL,[5],170.4 mg/dL
same,RALB,[5],4 g/dL
same,TBIL,[5],0.3 mg/dL
same,TC,[5],86.2 mg/dL
same,TG,[5],125.8 mg/dL
same,TP,[5],6 g/dL
same,gamma-GTP,[5],1.6 IU/L
same,TERMINAL_BW,[6],263.4 g
same,TERMINAL_BW,[7],327.9 g
same,TERMINAL_BW,[8],390.6 g
same,APTT,[6],16.5 s
same,Bas,[6],0%
same,Eos,[6],0.8%
same,Fbg,[6],229.8 mg/dL
same,Hb,[6],14.3 g/dL
same,Ht,[6],42.8%
same,Lym,[6],85.2%
same,MCHC,[6],33.5%
same,MCV,[6],64.2 fL
same,Mono,[6],5%
same,Neu,[6],8.8%
same,RBC,[6],668 x10_4/ul
same,Ret,[6],5.4%
same,APTT,[7],16.2 s
same,Bas,[7],0%
same,Eos,[7],0.8%
same,Fbg,[7],226.8 mg/dL
same,Hb,[7],14.8 g/dL
same,Ht,[7],44.2%
same,Lym,[7],85%
same,MCHC,[7],33.5%
same,MCV,[7],62.7 fL
same,Mono,[7],4.4%
same,Neu,[7],10%
same,RBC,[7],705.2 x10_4/ul
same,Ret,[7],5.1%
same,WBC,[7],153 x10_2/uL
same,APTT,[8],15.5 s
same,Bas,[8],0%
same,Eos,[8],0.4%
same,Fbg,[8],239.4 mg/dL
same,Hb,[8],15.3 g/dL
same,Ht,[8],45.7%
same,Lym,[8],85.4%
same,MCHC,[8],33.5%
same,MCV,[8],58.2 fL
same,Mono,[8],4%
same,RBC,[8],786.8 x10_4/ul
same,Ret,[8],2.4%
same,WBC,[8],138.6 x10_2/uL
same,KIDNEY_L,[6],1.2 g
same,KIDNEY_R,[6],1.2 g
same,KIDNEY_TOTAL,[6],2.4 g
same,KIDNEY_L,[7],1.3 g
same,KIDNEY_R,[7],1.3 g
same,KIDNEY_TOTAL,[7],2.6 g
same,KIDNEY_L,[8],1.4 g
same,KIDNEY_R,[8],1.4 g
same,KIDNEY_TOTAL,[8],2.7 g
same,ALP,[6],882.4 IU/L
same,ALT,[6],30 IU/L
same,AST,[6],61.4 IU/L
same,BUN,[6],18.6 mg/dL
same,CRE,[6],0.5 mg/dL
same,Ca,[6],10.5 mg/dL
same,Cl,[6],105.8 meq/L
same,DBIL,[6],0 mg/dL
same,GLC,[6],193.6 mg/dL
same,IP,[6],7.7 mg/dL
same,K,[6],5.2 meq/L
same,RALB,[6],4 g/dL
same,TBIL,[6],0.3 mg/dL
same,TC,[6],77 mg/dL
same,TG,[6],119 mg/dL
same,TP,[6],6.7 g/dL
same,gamma-GTP,[6],1.4 IU/L
same,ALP,[7],735.2 IU/L
same,ALT,[7],27.6 IU/L
same,AST,[7],57.2 IU/L
same,BUN,[7],20.4 mg/dL
same,CRE,[7],0.6 mg/dL
same,Ca,[7],10.8 mg/dL
same,Cl,[7],107.6 meq/L
same,DBIL,[7],0.002 mg/dL
same,GLC,[7],201 mg/dL
same,IP,[7],8.2 mg/dL
same,K,[7],5 meq/L
same,RALB,[7],4 g/dL
same,TBIL,[7],0.3 mg/dL
same,TC,[7],71 mg/dL
same,TG,[7],165.4 mg/dL
same,TP,[7],6.2 g/dL
same,gamma-GTP,[7],1.2 IU/L
same,ALP,[8],633.6 IU/L
same,ALT,[8],31.6 IU/L
same,AST,[8],57.8 IU/L
same,BUN,[8],21 mg/dL
same,CRE,[8],0.6 mg/dL
same,Ca,[8],10.5 mg/dL
same,Cl,[8],106.8 meq/L
same,DBIL,[8],0.012 mg/dL
same,GLC,[8],193.2 mg/dL
same,IP,[8],7.3 mg/dL
same,K,[8],4.3 meq/L
same,RALB,[8],4.2 g/dL
same,TBIL,[8],0.3 mg/dL
same,TC,[8],65.2 mg/dL
same,TG,[8],208.8 mg/dL
same,TP,[8],6.5 g/dL
same,gamma-GTP,[8],1.8 IU/L
same,TERMINAL_BW,[9],231.9 g
same,APTT,[9],17.3 s
same,Bas,[9],0%

# — ChEMBL document CHEMBL3885861, “Open TG-GATES”
